Reference: paper PMC6572064, “Discovery of 2-(1-(3-(4-Chloroxyphenyl)-3-oxo- propyl)pyrrolidine-3-yl)-1H-benzo[d]imidazole-4-carboxamide: A Potent Poly(ADP-ribose) Polymerase (PARP) Inhibitor for Treatment of Cancer” (Molecules, 2019)
Read-outs that look alike come from different tables or passages of the source.

Tests used:
PARP-2 = biological target: T1, PARP-2 (Homo sapiens, UniProt Q9UGN5); test: PARP-2 inhibition assay (PARP-2 Chemiluminescent Assay Kit, BPS Bioscience); assay type: biochemical; details: for inhibition at 0.01 µM: 10 nM compound
T1 construct: purchased BPS Bioscience 80552
Procedure: (§1) The PARP-1 and PARP-2 inhibition assays were performed in outsourcing, by a CRO company, Shanghai Medicilon Inc. (Shanghai, China). […] Briefly, PARP-1 or PARP-2 biotinylated substrate was incubated with compounds or solvent control at varying concentrations and an assay buffer containing the PARP-1 or PARP-2 enzyme.

PARP-1 = biological target: T2, PARP-1 (Homo sapiens, UniProt P09874); test: PARP-1 inhibition assay (PARP-1 Chemiluminescent Assay Kit, BPS Bioscience); assay type: biochemical; details: for inhibition at 0.01 µM: 10 nM compound
T2 construct: purchased BPS Bioscience 80569
Procedure: as §1

[1] = system: MDA-MB-436 (a BRCA-1-mutated breast cancer cell line); test: Cell proliferation assay, three-day, CellTiter-Glo, MDA-MB-436; assay type: cell-based; details: for inhibition at 0.00508 µM / inhibition at 0.0152 µM / inhibition at 0.0457 µM / inhibition at 0.41 µM / inhibition at 1.23 µM / inhibition at 3.7 µM / inhibition at 11.11 µM / inhibition at 33.33 µM / inhibition at 100 µM / IC50: Homo sapiens; for inhibition at 0.00508 µM: MDA-MB-436, MDA-MB-436, Conc. 0.00508 uM; for inhibition at 0.0152 µM: MDA-MB-436, MDA-MB-436, Conc. 0.0152 uM; for inhibition at 0.0457 µM: MDA-MB-436, MDA-MB-436, Conc. 0.0457 uM; for inhibition at 0.41 µM: MDA-MB-436, MDA-MB-436, Conc. 0.41 uM; for inhibition at 1.23 µM: MDA-MB-436, MDA-MB-436, Conc. 1.23 uM; for inhibition at 3.7 µM: MDA-MB-436, MDA-MB-436, Conc. 3.70 uM; for inhibition at 11.11 µM: MDA-MB-436, MDA-MB-436, Conc. 11.11 uM; for inhibition at 33.33 µM: MDA-MB-436, MDA-MB-436, Conc. 33.33 uM; for inhibition at 100 µM: MDA-MB-436, MDA-MB-436, Conc. 100.00 uM
Method in brief: (§2)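 Luminescent ATP read-out (CellTiter-Glo, 60 min at room temperature) quantified viability after a 72 h compound exposure at 37 °C, 5% CO2. Compounds, diluted from DMSO stocks into growth medium, were added to cells plated the previous day.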

[2] = system: CAPAN-1 (a BRCA-2-mutated pancreatic cancer cell line); test: Cell proliferation assay, three-day, CellTiter-Glo, CAPAN-1; assay type: cell-based; details: for IC50 / inhibition at 0.00508 µM / inhibition at 0.0152 µM / inhibition at 0.0457 µM / inhibition at […] / inhibition at 0.41 µM / inhibition at 1.23 µM / inhibition at 3.7 µM / inhibition at 11.11 µM / inhibition at 33.33 µM / inhibition at 100 µM: Homo sapiens; for inhibition at 0.00508 µM: CAPAN-1, 0.00508 uM; for inhibition at 0.0152 µM: CAPAN-1, 0.0152 uM; for inhibition at 0.0457 µM: CAPAN-1, 0.0457 uM; for inhibition at […]: CAPAN-1, 0.14 uM; for inhibition at 0.41 µM: CAPAN-1, 0.41 uM; for inhibition at 1.23 µM: CAPAN-1, 1.23 uM; for inhibition at 3.7 µM: CAPAN-1, 3.70 uM; for inhibition at 11.11 µM: CAPAN-1, 11.11 uM; for inhibition at 33.33 µM: CAPAN-1, 33.33 uM; for inhibition at 100 µM: CAPAN-1, 100.00 uM
Method in brief: as §2

T1 sequence (Q9UGN5 whole entry): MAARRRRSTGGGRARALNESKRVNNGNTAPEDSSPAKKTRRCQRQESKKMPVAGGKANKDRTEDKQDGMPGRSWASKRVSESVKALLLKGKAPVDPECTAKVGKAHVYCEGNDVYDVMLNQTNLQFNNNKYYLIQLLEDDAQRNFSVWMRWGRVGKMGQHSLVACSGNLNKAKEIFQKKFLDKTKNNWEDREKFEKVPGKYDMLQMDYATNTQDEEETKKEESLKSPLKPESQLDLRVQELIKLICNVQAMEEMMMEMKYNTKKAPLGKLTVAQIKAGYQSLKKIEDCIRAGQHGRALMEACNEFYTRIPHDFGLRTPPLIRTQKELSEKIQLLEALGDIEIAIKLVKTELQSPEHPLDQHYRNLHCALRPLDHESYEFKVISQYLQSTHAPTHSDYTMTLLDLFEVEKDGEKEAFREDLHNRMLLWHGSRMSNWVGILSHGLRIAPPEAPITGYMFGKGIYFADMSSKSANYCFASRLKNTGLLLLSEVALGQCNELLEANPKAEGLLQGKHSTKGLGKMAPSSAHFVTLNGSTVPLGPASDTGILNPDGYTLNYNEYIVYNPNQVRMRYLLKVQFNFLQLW
T2 sequence (P09874 whole entry): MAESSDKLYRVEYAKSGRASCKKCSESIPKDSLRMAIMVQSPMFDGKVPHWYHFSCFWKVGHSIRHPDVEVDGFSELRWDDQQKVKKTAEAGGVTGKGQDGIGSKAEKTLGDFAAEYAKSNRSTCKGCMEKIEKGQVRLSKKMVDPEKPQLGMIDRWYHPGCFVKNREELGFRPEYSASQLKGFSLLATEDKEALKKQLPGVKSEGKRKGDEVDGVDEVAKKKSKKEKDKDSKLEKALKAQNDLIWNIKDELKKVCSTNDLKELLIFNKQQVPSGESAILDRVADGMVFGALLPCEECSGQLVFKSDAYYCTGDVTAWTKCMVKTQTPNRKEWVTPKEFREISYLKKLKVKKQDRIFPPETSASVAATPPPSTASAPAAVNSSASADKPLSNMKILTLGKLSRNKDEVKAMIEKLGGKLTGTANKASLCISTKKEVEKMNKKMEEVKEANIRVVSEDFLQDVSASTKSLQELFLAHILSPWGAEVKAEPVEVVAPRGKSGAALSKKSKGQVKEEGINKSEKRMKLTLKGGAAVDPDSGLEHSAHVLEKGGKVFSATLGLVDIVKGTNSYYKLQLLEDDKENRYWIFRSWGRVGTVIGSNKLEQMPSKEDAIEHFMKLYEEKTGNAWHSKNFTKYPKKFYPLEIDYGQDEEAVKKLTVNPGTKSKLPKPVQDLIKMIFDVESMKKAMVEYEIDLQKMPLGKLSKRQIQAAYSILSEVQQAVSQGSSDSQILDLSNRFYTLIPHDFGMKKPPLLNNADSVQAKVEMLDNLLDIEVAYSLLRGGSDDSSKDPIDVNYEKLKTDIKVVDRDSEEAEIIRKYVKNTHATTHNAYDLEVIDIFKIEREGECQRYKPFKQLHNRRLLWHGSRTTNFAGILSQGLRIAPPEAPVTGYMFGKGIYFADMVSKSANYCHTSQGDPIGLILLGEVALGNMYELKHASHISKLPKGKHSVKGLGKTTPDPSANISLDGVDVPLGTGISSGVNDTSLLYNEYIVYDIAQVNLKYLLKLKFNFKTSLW

Structure (SMILES): NC(=O)c1cccc2[nH]c(C3CCN(CCC(=O)c4ccc(Cl)cc4)C3)nc12 (centres unmarked) [Compound 5cj]
- inhibition at 0.01 µM (PARP-2; supplement sheet, read-out: 10 nM inhibition% PAPR-2): 65.5%
- inhibition at 0.01 µM (PARP-2; read-out: PARP-2 Inhibition % (10 nM)): 65.6%
- IC50 (PARP-2; read-out: PARP-2 IC50): 0.0042 µM
- IC50 (PARP-2; supplement sheet, read-out: IC50 PAPR-2): 0.00422 µM
- inhibition at 0.01 µM (PARP-1; supplement sheet, read-out: 10 nM inhibition% PAPR-1): 65.7%
- inhibition at 0.01 µM (PARP-1; read-out: PARP-1 Inhibition % (10 nM)): 65.7%
- IC50 (PARP-1; read-out: PARP-1 IC50): 0.0039 µM
- IC50 (PARP-1; supplement sheet, read-out: IC50 PAPR-1): 0.00389 µM
- inhibition at 0.00508 µM ([1]; replicate 1, read-out: Inh % 1): -7.9%
- inhibition at 0.00508 µM ([1]; replicate 2, read-out: Inh % 2): -1.6%
- inhibition at 0.0152 µM ([1]; replicate 1, read-out: Inh % 1): -3%
- inhibition at 0.0152 µM ([1]; replicate 2, read-out: Inh % 2): -9.8%
- inhibition at 0.0457 µM ([1]; replicate 1, read-out: Inh % 1): -14.2%
- inhibition at 0.0457 µM ([1]; replicate 2, read-out: Inh % 2): -14.3%
- inhibition at 0.41 µM ([1]; replicate 1, read-out: Inh % 1): -16.8%
- inhibition at 0.41 µM ([1]; replicate 2, read-out: Inh % 2): -14.6%
- inhibition at 1.23 µM ([1]; replicate 1, read-out: Inh % 1): -8.7%
- inhibition at 1.23 µM ([1]; replicate 2, read-out: Inh % 2): -14.5%
- inhibition at 3.7 µM ([1]; replicate 1, read-out: Inh % 1): -10.6%
- inhibition at 3.7 µM ([1]; replicate 2, read-out: Inh % 2): -13.6%
- inhibition at 11.11 µM ([1]; replicate 1, read-out: Inh % 1): 10.8%
- inhibition at 11.11 µM ([1]; replicate 2, read-out: Inh % 2): 8.2%
- inhibition at 33.33 µM ([1]; replicate 1, read-out: Inh % 1): 93.8%
- inhibition at 33.33 µM ([1]; replicate 2, read-out: Inh % 2): 82.1%
- inhibition at 100 µM ([1]; replicate 1, read-out: Inh % 1): 99.7%
- inhibition at 100 µM ([1]; replicate 2, read-out: Inh % 2): 98.9%
- IC50 ([1]; MDA-MB-436, 72 h, CellTiter-Glo, read-out: MDA-MB-436 IC50): 17.4 µM
- IC50 ([1]; MDA-MB-436, 72 h, supplement Summary sheet, read-out: IC50): 17.4 µM
- IC50 ([1]; MDA-MB-436, curve fit list, no unit in the cell, concentration in uM, read-out: IC50): 17.4 µM
- LogIC50 ([1]; MDA-MB-436, curve fit on Log (uM) concentrations): 1.241
- Bottom ([1]; MDA-MB-436, curve fit parameter (Inh %)): -11.12
- Top ([1]; MDA-MB-436, curve fit parameter (Inh %), '= 100.0' is a constrained value): 99.53
- LogIC50 ([2]; CAPAN-1, curve-fit output, Log (uM)): 1.057
- IC50 ([2]; CAPAN-1, 72 h, CellTiter-Glo, read-out: CAPAN-1 IC50): 11.4 µM
- inhibition at 0.00508 µM ([2]; replicate 1, read-out: Inh % 1): 9.5%
- inhibition at 0.00508 µM ([2]; replicate 2, read-out: Inh % 2): -1.4%
- inhibition at 0.0152 µM ([2]; replicate 1, read-out: Inh % 1): 3.1%
- inhibition at 0.0152 µM ([2]; replicate 2, read-out: Inh % 2): -2.2%
- inhibition at 0.0457 µM ([2]; replicate 1, read-out: Inh % 1): 3.3%
- inhibition at 0.0457 µM ([2]; replicate 2, read-out: Inh % 2): 3.4%
- inhibition at […] ([2]; replicate 1, read-out: Inh % 1): 13.7%
- inhibition at […] ([2]; replicate 2, read-out: Inh % 2): -6.2%
- inhibition at 0.41 µM ([2]; replicate 1, read-out: Inh % 1): 2.9%
- inhibition at 0.41 µM ([2]; replicate 2, read-out: Inh % 2): 7.7%
- inhibition at 1.23 µM ([2]; replicate 1, read-out: Inh % 1): -2.6%
- inhibition at 1.23 µM ([2]; replicate 2, read-out: Inh % 2): 0.5%
- inhibition at 3.7 µM ([2]; replicate 1, read-out: Inh % 1): 7.7%
- inhibition at 3.7 µM ([2]; replicate 2, read-out: Inh % 2): 2.2%
- inhibition at 11.11 µM ([2]; replicate 1, read-out: Inh % 1): 54.1%
- inhibition at 11.11 µM ([2]; replicate 2, read-out: Inh % 2): 45.1%
- inhibition at 33.33 µM ([2]; replicate 1, read-out: Inh % 1): 97.9%
- inhibition at 33.33 µM ([2]; replicate 2, read-out: Inh % 2): 96.8%
- inhibition at 100 µM ([2]; replicate 1, read-out: Inh % 1): 99.6%
- inhibition at 100 µM ([2]; replicate 2, read-out: Inh % 2): 98.9%
- IC50 ([2]; CAPAN-1, 72 h, supplement Summary sheet, read-out: IC50): 11.4 µM
- IC50 ([2]; CAPAN-1, curve-fit output, concentrations in uM, read-out: IC50): 11.4 µM
